{"source": "ChEMBL document CHEMBL5321279", "about": "(J Med Chem, 2023)", "key": {"[1]": {"test": "(§1) Cytotoxicity against stimulated human PBMC cells assessed as reduction in cell growth measured after 5 days by CellTiter-Glo assay", "assay_type": "toxicity, cell-based", "conditions": "stimulated PBMC, time 5 day"}, "[2]": {"test": "(§2) Cytotoxicity against human primary hepatocytes assessed as reduction in cell growth measured after 5 days by CellTiter-Glo assay", "assay_type": "toxicity, cell-based, Hepatocyte", "conditions": "primary hepatocytes, time 5 day"}, "[3]": {"test": "(§3) Cytotoxicity against human PC-3 cells assessed as reduction in cell growth measured after 5 days by CellTiter-Glo assay", "assay_type": "toxicity, cell-based", "conditions": "PC-3 cells, time 5 day"}, "[4]": {"test": "(§4) Cytotoxicity against quiescent human PBMC cells assessed as reduction in cell growth measured after 5 days by CellTiter-Glo assay", "assay_type": "toxicity, cell-based", "conditions": "quiescent PBMC, time 5 day"}, "[5]": {"test": "AUC(0 to 24 hrs) in African green monkey infected with SARS-CoV-2 assessed as prodrug conversion by measuring (2R,3R,4S,5R)-2-(4-aminopyrrolo[2,1-f][1,2,4]triazin-7-yl)-3,4-dihydroxy-5-(hydroxymethyl)tetrahydrofuran-2-carbonitrile at 7.5 mg/kg, iv qd measured after 6 days by LC-MS/MS analysis", "assay_type": "ADME, organism-based, Severe acute respiratory syndrome coronavirus 2", "set-up": "dose 7.5 mg/kg, time 6 day, route iv", "conditions": "in vivo"}, "in vivo": {"test": "in vivo", "conditions": "dog, po, 5 mg/kg"}, "[6]": {"test": "AUC(0 to 24 hrs) in rat at 1 mg/kg, iv measured upto 24 hrs by LC-MS/MS analysis", "assay_type": "ADME, organism-based", "set-up": "dose 1 mg/kg, time < 24 hrs, route iv", "conditions": "in vivo"}, "[7]": {"test": "Aqueous stability of the compound assessed as compound remaining at pH 2 measured at 24 hrs by UPLC analysis", "assay_type": "physicochemical", "conditions": "aqueous solution, read-out: Stability"}, "PBMC [8]": {"tested_on": "PBMC", "test": "as §1", "assay_type": "toxicity, cell-based", "conditions": "pbmc, 120 h, time 5 day"}, "[9]": {"test": "AUC(0 to 24 hrs) in African green monkey at 86.5 mg/kg, po measured upto 24 hrs by LC-MS/MS analysis", "assay_type": "ADME, organism-based", "set-up": "dose 86.5 mg/kg, time < 24 hrs, route po", "conditions": "chlorocebus sabaeus, in vivo"}, "[10]": {"test": "Cmax in dog assessed as prodrug conversion by measuring (2R,3R,4S,5R)-2-(4-aminopyrrolo[2,1-f][1,2,4]triazin-7-yl)-3,4-dihydroxy-5-(hydroxymethyl)tetrahydrofuran-2-carbonitrile at […], po measured upto 24 hrs by LC-MS/MS analysis", "assay_type": "ADME, organism-based, Canis lupus familiaris", "conditions": "in vivo"}, "[11]": {"test": "AUC(0 to 24 hrs) in rat assessed as prodrug conversion by measuring (2R,3R,4S,5R)-2-(4-aminopyrrolo[2,1-f][1,2,4]triazin-7-yl)-3,4-dihydroxy-5-(hydroxymethyl)tetrahydrofuran-2-carbonitrile at 6 mg/kg, po measured upto 24 hrs by LC-MS/MS analysis", "assay_type": "ADME, organism-based", "set-up": "time < 24 hrs, dose 6 mg/kg, route po", "conditions": "in vivo"}, "[12]": {"test": "Cmax in African green monkey infected with SARS-CoV-2 assessed as prodrug conversion by measuring (2R,3R,4S,5R)-2-(4-aminopyrrolo[2,1-f][1,2,4]triazin-7-yl)-3,4-dihydroxy-5-(hydroxymethyl)tetrahydrofuran-2-carbonitrile at 60 mg/kg, po qd measured after 6 days by LC-MS/MS analysis", "assay_type": "ADME, organism-based, Severe acute respiratory syndrome coronavirus 2", "set-up": "dose 60 mg/kg, time 6 day, route po", "conditions": "in vivo"}, "[13]": {"test": "Oral bioavailability in rat assessed as prodrug conversion by measuring (2R,3R,4S,5R)-2-(4-aminopyrrolo[2,1-f][1,2,4]triazin-7-yl)-3,4-dihydroxy-5-(hydroxymethyl)tetrahydrofuran-2-carbonitrile at 6 mg/kg measured upto 24 hrs by LC-MS/MS analysis", "assay_type": "ADME, organism-based", "conditions": "in vivo"}, "Hepatocyte": {"tested_on": "Hepatocyte", "test": "as §2", "assay_type": "toxicity, cell-based", "conditions": "hepatocytes, 120 h, time 5 day"}, "SARS-CoV-2 [14]": {"tested_on": "SARS-CoV-2", "test": "Antiviral activity against SARS-CoV-2 infected in African green monkey assessed as reduction in viral titer in nasal swabs at 60 to 120 mg/kg, po qd administered for 4 days starting from 8 hrs post infection by PFA assay", "assay_type": "functional, organism-based", "conditions": "Severe acute respiratory syndrome coronavirus 2, dose lower 60.0 mg/kg, dose upper […], time 4.0 day"}, "[15]": {"test": "Stability of compound in rat liver S9 fraction assessed as half life at pH 7.4 measured upto 90 mins by LC-MS/MS analysis", "assay_type": "ADME, subcellular"}, "SARS-CoV-2 [16]": {"tested_on": "SARS-CoV-2", "test": "Antiviral activity against SARS-CoV-2 infected in African green monkey assessed as reduction in viral genomic RNA load in terminal respiratory tissue at 60 to 120 mg/kg, po qd administered for 6 days starting from 8 hrs post infection by RT-qPCR analysis", "assay_type": "functional, organism-based", "conditions": "Severe acute respiratory syndrome coronavirus 2, dose lower 60.0 mg/kg, dose upper […], time 6.0 day"}, "SARS-CoV-2 [17]": {"tested_on": "SARS-CoV-2", "test": "Antiviral activity against SARS-CoV-2 infected in African green monkey assessed as reduction in viral load in BALF at 60 to 120 mg/kg, po qd administered for 6 days starting from 8 hrs post infection by PFA assay", "assay_type": "functional, organism-based", "conditions": "Severe acute respiratory syndrome coronavirus 2, dose lower 60.0 mg/kg, dose upper […], time 6.0 day"}, "[18]": {"test": "Oral bioavailability in African green monkey assessed as prodrug conversion by measuring (2R,3R,4S,5R)-2-(4-aminopyrrolo[2,1-f][1,2,4]triazin-7-yl)-3,4-dihydroxy-5-(hydroxymethyl)tetrahydrofuran-2-carbonitrile at 86.5 mg/kg measured upto 24 hrs by LC-MS/MS analysis", "assay_type": "ADME, organism-based", "conditions": "chlorocebus sabaeus, in vivo"}, "SARS-CoV-2 [19]": {"tested_on": "SARS-CoV-2", "test": "Antiviral activity against SARS-CoV-2 infected in African green monkey assessed as reduction in viral titer in throat swabs at 60 to 120 mg/kg, po qd administered for 6 days starting from 8 hrs post infection by PFA assay", "assay_type": "functional, organism-based", "conditions": "Severe acute respiratory syndrome coronavirus 2, dose lower 60.0 mg/kg, dose upper […], time 6.0 day"}, "[20]": {"test": "Oral bioavailability in cynomolgus monkey assessed as prodrug conversion by measuring (2R,3R,4S,5R)-2-(4-aminopyrrolo[2,1-f][1,2,4]triazin-7-yl)-3,4-dihydroxy-5-(hydroxymethyl)tetrahydrofuran-2-carbonitrile at 11.7 mg/kg measured upto 24 hrs by LC-MS/MS analysis", "assay_type": "ADME, organism-based, Macaca fascicularis", "conditions": "in vivo"}, "PC-3": {"tested_on": "PC-3", "test": "as §3", "assay_type": "toxicity, cell-based", "conditions": "pc-3, 120 h, time 5 day"}, "[21]": {"test": "Stability of compound in human plasma assessed as half life measured upto 4 hrs by LC-MS/MS analysis", "assay_type": "ADME, cell-free"}, "[22]": {"test": "Cmax in African green monkey assessed as prodrug conversion by measuring (2R,3R,4S,5R)-2-(4-aminopyrrolo[2,1-f][1,2,4]triazin-7-yl)-3,4-dihydroxy-5-(hydroxymethyl)tetrahydrofuran-2-carbonitrile at 60 mg/kg, po measured upto 24 hrs by LC-MS/MS analysis", "assay_type": "ADME, organism-based", "set-up": "dose 60 mg/kg, time < 24 hrs, route po", "conditions": "chlorocebus sabaeus, in vivo"}, "PBMC [23]": {"tested_on": "PBMC", "test": "as §4", "assay_type": "toxicity, cell-based", "conditions": "pbmc, 120 h, time 5 day"}, "[24]": {"test": "Stability of compound in cynomolgus monkey plasma assessed as half life measured upto 4 hrs by LC-MS/MS analysis", "assay_type": "ADME, cell-free, Macaca fascicularis"}, "SARS-CoV-2 [25]": {"tested_on": "SARS-CoV-2", "test": "Antiviral activity against SARS-CoV-2 infected in African green monkey assessed as reduction in viral genomic RNA load in nasal swabs at 60 to 120 mg/kg, po qd administered for 4 days starting from 8 hrs post infection by RT-qPCR analysis", "assay_type": "functional, organism-based", "conditions": "Severe acute respiratory syndrome coronavirus 2, dose lower 60.0 mg/kg, dose upper […], time 4.0 day"}, "[26]": {"test": "Cmax in rat assessed as prodrug conversion by measuring (2R,3R,4S,5R)-2-(4-aminopyrrolo[2,1-f][1,2,4]triazin-7-yl)-3,4-dihydroxy-5-(hydroxymethyl)tetrahydrofuran-2-carbonitrile at 6 mg/kg, po measured upto 24 hrs by LC-MS/MS analysis", "assay_type": "ADME, organism-based", "set-up": "dose 6 mg/kg, time < 24 hrs, route po", "conditions": "in vivo"}, "[27]": {"test": "Half life in cynomolgus monkey assessed as prodrug conversion by measuring (2R,3R,4S,5R)-2-(4-aminopyrrolo[2,1-f][1,2,4]triazin-7-yl)-3,4-dihydroxy-5-(hydroxymethyl)tetrahydrofuran-2-carbonitrile at 11.7 mg/kg, po measured upto 24 hrs by LC-MS/MS analysis", "assay_type": "ADME, organism-based, Macaca fascicularis", "conditions": "in vivo"}, "[28]": {"test": "Stability of compound in dog gastrointestinal S9 fraction assessed as half life at pH 7.4 measured upto 120 mins by LC-MS/MS analysis", "assay_type": "ADME, subcellular, Canis lupus familiaris, Gastrointestinal tract"}}, "note": "Active and inactive are the calls of the source. The rule behind the calls is not given here.", "data": [{"smiles": "CCC(CC)COC(=O)[C@H](C)N[P@](=O)(OC[C@H]1O[C@@](C#N)(c2ccc3c(N)ncnn23)[C@H](O)[C@@H]1O)Oc1ccccc1", "values": [{"measurement": "CC50 at 120 h", "setting": "[1]", "result": 14.8, "unit": "µM"}, {"measurement": "CC50 at 120 h", "setting": "[2]", "result": 2.5, "unit": "µM"}, {"measurement": "CC50 at 120 h", "setting": "[3]", "result": 1.4, "unit": "µM"}, {"measurement": "CC50 at 120 h", "setting": "[4]", "result": "> 20", "unit": "µM"}]}, {"smiles": "N#C[C@@]1(c2ccc3c(N)ncnn23)O[C@H](CO)[C@@H](O)[C@H]1O", "note": "[GS-441524]", "values": [{"measurement": "AUC", "setting": "[5]", "result": "~ 55 uM.hr"}, {"measurement": "bioavailability at 24 h", "setting": "in vivo", "result": 89, "unit": "%"}, {"measurement": "AUC", "setting": "[6]", "result": 2.5, "unit": "µM·h"}]}, {"smiles": "CC(C)C(=O)OC[C@H]1O[C@@](C#N)(c2ccc3c(N)ncnn23)[C@H](O)[C@@H]1O", "note": "[OBELDESIVIR]", "values": [{"measurement": "remaining at 24 h", "setting": "[7]", "result": "≥ 94", "unit": "%"}, {"measurement": "CC50", "setting": "PBMC [8]", "result": "> 100", "unit": "µM"}, {"measurement": "AUC", "setting": "[9]", "result": 0.68, "unit": "µM·h"}, {"measurement": "Cmax", "setting": "[10]", "result": 57.8, "unit": "µM"}, {"measurement": "AUC", "setting": "[11]", "result": 7.57, "unit": "µM·h"}, {"measurement": "Cmax", "setting": "[12]", "result": 21, "unit": "µM"}, {"measurement": "F", "setting": "[13]", "result": 63, "unit": "%"}, {"measurement": "CC50", "setting": "Hepatocyte", "result": "> 100", "unit": "µM"}, {"measurement": "Activity", "setting": "SARS-CoV-2 [14]", "result": "Active"}, {"measurement": "half-life at […]", "setting": "[15]", "result": "< 2", "unit": "min"}, {"measurement": "Activity", "setting": "SARS-CoV-2 [16]", "result": "Active"}, {"measurement": "Activity", "setting": "SARS-CoV-2 [17]", "result": "Active"}, {"measurement": "F", "setting": "[18]", "result": 27, "unit": "%"}, {"measurement": "Activity", "setting": "SARS-CoV-2 [19]", "result": "Active"}, {"measurement": "F", "setting": "[20]", "result": 37, "unit": "%"}, {"measurement": "CC50", "setting": "PC-3", "result": "> 100", "unit": "µM"}, {"measurement": "half-life", "setting": "[21]", "result": 29, "unit": "min"}, {"measurement": "Cmax", "setting": "[22]", "result": 22.5, "unit": "µM"}, {"measurement": "CC50", "setting": "PBMC [23]", "result": "> 100", "unit": "µM"}, {"measurement": "half-life", "setting": "[24]", "result": 9.7, "unit": "min"}, {"measurement": "Activity", "setting": "SARS-CoV-2 [25]", "result": "Active"}, {"measurement": "Cmax", "setting": "[26]", "result": 2.1, "unit": "µM"}, {"measurement": "t1/2", "setting": "[27]", "result": 157, "unit": "min"}, {"measurement": "half-life", "setting": "[28]", "result": "< 2", "unit": "min"}]}]}
